Experimental findings from patent US20180344768A1, “NK CELL-BASED THERAPY” (Onkimmune Limited, priority 2016, published 2018) are described below.

One test deals with K562 cells. Nature of the test: Inhibition of KHYG-1 cell cytotoxicity by IL-6, flow cytometry. The test is classed as cell-based. Particulars: K562, IL-6 100 ng/mL. As to the method:
(§1) KHYG-1, RPMI8226, MM1.S and K562 cells were cultured and maintained as described above. Cells were harvested in log phase, washed and re-suspended in pre-warmed appropriate mediums, before adjusting the cell concentration to 1 million/mL. The concentration of target cells was adjusted according to the E:T (effector: target) ratio. 0.5 mL KHYG-1 cells and 0.5 mL target cells were added to one well of a 24-well plate. IL-6 was added to the wells at final concentration of 100 ng/mL. The plates were then placed in a humidified 37° C./5% CO2 incubator for 12 hours (6 or 4 hours for K562 cells). The same mixture of KHYG-1 and target cells at time point 0 hr were used as a control.
(§2) Flow cytometry was used to measure the cytotoxicity of KHYG-1 cells. The co-cultured cells were collected (at different time points), washed and then stained with CD2-APC antibody (2.5 uL/test) first, then stained with AnnexinV-FITC (2.5 uL/test) and SYTOX-Green (0.5 uL/test) using AnnexinV binding buffer. Data were further analyzed using FlowJo 7.6.1 software. CD2-positive and CD2-negative gates were set which represent KHYG-1 cells and target cells, respectively. KHYG-1 cells were 100% positive for CD2, but K562, RPMI8226 and MM1.S cells were CD2-negative. Finally, the percentage of AnnexinV-FITC and SYTOX-Green positive cells (dead cells) in CD2-negative population was analyzed.

For the next test, the system named is MM1.S cells. The description is as above. Type of test: cell-based. The settings on record: IL-6 100 ng/mL, E:T 1:1, 12 hr incubation. As to the method:
as §1, §2

A further test deals with RPMI8226 cells. The description is as above. The settings on record: RPMI8226, IL-6 100 ng/mL, E:T 1:1, 12 hr incubation. Type of test: cell-based. As to the method:
as §1, §2

The test system of test [1] is NKG2A (inhibitory receptor). Description: Receptor expression on KHYG-1 cells after IL-6 stimulation. Type of test: cell-based, human. Particulars: 50 ng/mL IL-6 in the presence of IL-2, 24 hours. From the text: (§3) Negative control means FMO. APC anti-human NKG2D Antibody (catalog number #320807) was bought from Biolegend. APC anti-human NKG2A Antibody (catalog number FAB1059A) was bought from R&D systems.

Test [2] relates to NKG2D (activating receptor). The test is described as above. Particulars: 50 ng/mL IL-6 in the presence of IL-2, 24 hours. Type of test: cell-based, human.
Source text: as §3

The next test concerns PD-L1. Nature of the test: Checkpoint ligand expression on MM cells treated with IL-6. Type of test: cell-based, human. Particulars: 100 ng/mL IL-6, 48 hours. As to the method:
(§4) MM cells in log phase were seeded at 0.5 million/mL in RPMI1640 medium containing 10% FBS. A final concentration of 100 ng/mL IL-6 or same volume of vehicle (PBS) was used to treat MM cells for 48 hours. Then MM cells were harvested, washed, and stained with PD-L1 and PD-L2 antibodies (2.5 uL/test). Flow cytometric data were acquired using a FACS Canto II, and the results were further analyzed by […] 8.0.1 software.

Another test deals with PD-L2. The description is as above. The test is classed as cell-based, human. The settings on record: 100 ng/mL IL-6, 48 hours. As to the method:
as §4

Test [3] relates to p-STAT3, p-SHP1, p-SHP2, p-P44/42. Nature of the test: IL-6 / IL-2 signaling in KHYG-1 cells, gel electrophoresis. The test is classed as cell-based, human. From the text: PE labeled mouse anti-human CD126 (IL-6 receptor alpha chain) (Catalog: 551850), PE labeled mouse anti-human CD130 (gp130, IL-6 receptor-associated signal transducer) (Catalog #:555757), PE-labeled Mouse IgG1 k isotype control (Catalog: 555749), APC-labeled mouse anti-human CD2 (Catalog: 560642), FITC-labeled mouse anti-human CD2 (Catalog: 555326), APC-labeled mouse anti-human PD-L1 (Catalog: 563741) and APC-labeled mouse anti-human PD-L2 (Catalog: 557926) were bought from BD Pharmingen. APC-labeled mouse anti-human PD1 antibody (Catalog: 329907) was bought from Biolegend. Phosphor-Stat3(Ser727) mouse mAb (Catalog:9136), Phosphor-Shp-1(Tyr564) rabbit mAb (Catalog; 8849), Phosphor-Shp-2(Tyr580) rabbit mAb (Catalog: 5431), Phospho-p44/42 MAPK (Erk1/2) (Thr202/Tyr204) rabbit mAb (Catalog: 4370) and p44/42 MAPK (Erk1/2) rabbit mAb were bought from Cell Signaling Technology. Phosphor-Stat3(Tyr705) mouse mAb (Catalog: sc-81523) and rabbit anti-human Stat3 polyclonal antibody (Catalog: sc-7179) were bought from Santa Cruz Biotechnology. Mouse anti-beta actin (Catalog: A5441) was bought from SIGMA-ALDRICH. Functional IL-6 blocking antibody (Catalog: 501110) and the related isotype control antibody (Catalog: 400414) were bought from Biolegend.
KHYG-1 cells were cultivated and maintained as mentioned above.

Setting [4] is: KHYG-1 cells starved of IL-2 for 6 hours, cytokine alone (IL-2 10 ng/mL or IL-6 100 ng/mL).
[5] abbreviates: KHYG-1 cells, IL-6 in the presence of IL-2.

Consider “IL-6: Recombinant Human IL-6 (Catalog: 200-06) from PEPROTECH”, for which the “percentage of dead target cells co-cultured with KHYG-1 cells” value in the test on K562 cells (E:T 1:1, 4 hr incubation) is “decreased”; in the test with K562 cells (E:T 1:1, 6 hr incubation), “decreased”; in the test on MM1.S cells, “decreased”; with RPMI8226 cells, “decreased”. Moreover, the NKG2A expression entry in test [1] is reported as “increasing expression”. In addition, the NKG2D expression levels entry in test [2] is given as “decreasing expression levels”. Further, the PD-L1 expression entry with PD-L1 (MM1.S cells), in the test on PD-L1 (NCI-H929 cells), in the test with PD-L1 (RPMI8226 cells) and in the test on PD-L1 (U266 cells) was “upregulation” throughout. Also, the PD-L2 expression result with PD-L2 (MM1.S cells), in the test on PD-L2 (NCI-H929 cells), in the test on PD-L2 (RPMI8226 cells) and with PD-L2 (U266 cells) was “upregulation” each time. Also, in test [3] (setting [4]), the p-P44/42 entry is “decreased expression”. Besides, in test [3] (setting [4]), the p-SHP1 entry is recorded as “activated”. Moreover, the p-SHP2 entry in test [3] (setting [4]) is listed as “activated”. For the same substance, the p-STAT3 entry in test [3] (setting [4]) is reported as “activated”. Besides, the p-P44/42 expression entry in test [3] (setting [5]) is “decreasing”. Moreover, the p-SHP1 expression result in test [3] (setting [5]) is recorded as “increasing”. Moreover, the p-SHP2 expression entry in test [3] (setting [5]) is “increasing”.
